Laboratory results published in patent publication US20230266302A1, “SYNTHESIS AND USE OF N-BENZYL SULFONAMIDES” (THE UNIVERSITY OF TULSA, priority 2020, published 2023).

System: PC3 (prostate cancer)
Assay: ATP level assay (CellTiter-Glo), percent of control
Format: cell-based
Conditions: 2 h; compound alone, 100 uM, two hour incubation, control DMSO; read-out: POC (percent of control) PC3

Row | Compound | activity at 100 µM [%]
1 | O=S(=O)(NCc1c[nH]c2cccc(Br)c12)c1ccc(Cl)cc1 [Compound 27, N-[(4-bromo-1H-indol-3-yl)methyl]-4-chlorobenzenesulfonamide] | 43.1

Same assay, conditions: compound 100 uM + 2DG (about 10-20 mM), two hour incubation

Row | Compound | POC (percent of control) PC3
2 | O=S(=O)(NCc1c[nH]c2cccc(Br)c12)c1ccc(Cl)cc1 [Compound 27, N-[(4-bromo-1H-indol-3-yl)methyl]-4-chlorobenzenesulfonamide] | 15.2% of control

Same assay, conditions: compound 100 uM + rotenone (approximately 1.25 μM), two hour incubation

Row | Compound | POC (percent of control) PC3
3 | O=S(=O)(NCc1c[nH]c2cccc(Br)c12)c1ccc(Cl)cc1 [Compound 27, N-[(4-bromo-1H-indol-3-yl)methyl]-4-chlorobenzenesulfonamide] | 27.2% of control

System: NCI-H196 (lung cancer)
Assay: as above
Format: cell-based
Conditions: NCI-H196, 2 h; compound alone, 100 uM, two hour incubation, control DMSO; read-out: POC (percent of control) NCI-H196

Row | Compound | activity at 100 µM [%]
4 | O=S(=O)(NCc1c[nH]c2cccc(Br)c12)c1ccc(Cl)cc1 [Compound 27, N-[(4-bromo-1H-indol-3-yl)methyl]-4-chlorobenzenesulfonamide] | 150

Same assay, conditions: compound 100 uM + 2DG (about 10-20 mM), two hour incubation

Row | Compound | POC (percent of control) NCI-H196
5 | O=S(=O)(NCc1c[nH]c2cccc(Br)c12)c1ccc(Cl)cc1 [Compound 27, N-[(4-bromo-1H-indol-3-yl)methyl]-4-chlorobenzenesulfonamide] | 117.2% of control

Same assay, conditions: compound 100 uM + rotenone (approximately 1.25 μM), two hour incubation

Row | Compound | POC (percent of control) NCI-H196
6 | O=S(=O)(NCc1c[nH]c2cccc(Br)c12)c1ccc(Cl)cc1 [Compound 27, N-[(4-bromo-1H-indol-3-yl)methyl]-4-chlorobenzenesulfonamide] | 16.7% of control

System: HeLa (cervical cancer)
Assay: as above
Format: cell-based
Conditions: Homo sapiens, HeLa, 2 h; compound alone, 100 uM, two hour incubation, control DMSO; read-out: POC (percent of control) HeLa

Row | Compound | activity at 100 µM [%]
7 | O=S(=O)(NCc1c[nH]c2cccc(Br)c12)c1ccc(Cl)cc1 [Compound 27, N-[(4-bromo-1H-indol-3-yl)methyl]-4-chlorobenzenesulfonamide] | 58.3

Same assay, conditions: compound 100 uM + 2DG (about 10-20 mM), two hour incubation

Row | Compound | POC (percent of control) HeLa
8 | O=S(=O)(NCc1c[nH]c2cccc(Br)c12)c1ccc(Cl)cc1 [Compound 27, N-[(4-bromo-1H-indol-3-yl)methyl]-4-chlorobenzenesulfonamide] | 104.3% of control

Same assay, conditions: compound 100 uM + rotenone (approximately 1.25 μM), two hour incubation

Row | Compound | POC (percent of control) HeLa
9 | O=S(=O)(NCc1c[nH]c2cccc(Br)c12)c1ccc(Cl)cc1 [Compound 27, N-[(4-bromo-1H-indol-3-yl)methyl]-4-chlorobenzenesulfonamide] | 73.3% of control

System: SkBr3 (breast cancer)
Assay: as above
Format: cell-based
Conditions: Homo sapiens, SK-BR-3, 2 h; compound alone, 100 uM, two hour incubation, control DMSO; read-out: POC (percent of control) SkBr3

Row | Compound | activity at 100 µM [%]
10 | O=S(=O)(NCc1c[nH]c2cccc(Br)c12)c1ccc(Cl)cc1 [Compound 27, N-[(4-bromo-1H-indol-3-yl)methyl]-4-chlorobenzenesulfonamide] | 95.6

Same assay, conditions: compound 100 uM + 2DG (about 10-20 mM), two hour incubation

Row | Compound | POC (percent of control) SkBr3
11 | O=S(=O)(NCc1c[nH]c2cccc(Br)c12)c1ccc(Cl)cc1 [Compound 27, N-[(4-bromo-1H-indol-3-yl)methyl]-4-chlorobenzenesulfonamide] | 62.4% of control

Same assay, conditions: compound 100 uM + rotenone (approximately 1.25 μM), two hour incubation

Row | Compound | POC (percent of control) SkBr3
12 | O=S(=O)(NCc1c[nH]c2cccc(Br)c12)c1ccc(Cl)cc1 [Compound 27, N-[(4-bromo-1H-indol-3-yl)methyl]-4-chlorobenzenesulfonamide] | 66% of control

System: MDA-MB (breast cancer)
Assay: as above
Format: cell-based
Conditions: 2 h; compound alone, 100 uM, two hour incubation, control DMSO; read-out: POC (percent of control) MDA-MB

Row | Compound | activity at 100 µM [%]
13 | O=S(=O)(NCc1c[nH]c2cccc(Br)c12)c1ccc(Cl)cc1 [Compound 27, N-[(4-bromo-1H-indol-3-yl)methyl]-4-chlorobenzenesulfonamide] | 62.6

Same assay, conditions: compound 100 uM + 2DG (about 10-20 mM), two hour incubation

Row | Compound | POC (percent of control) MDA-MB
14 | O=S(=O)(NCc1c[nH]c2cccc(Br)c12)c1ccc(Cl)cc1 [Compound 27, N-[(4-bromo-1H-indol-3-yl)methyl]-4-chlorobenzenesulfonamide] | 27.3% of control

Same assay, conditions: compound 100 uM + rotenone (approximately 1.25 μM), two hour incubation

Row | Compound | POC (percent of control) MDA-MB
15 | O=S(=O)(NCc1c[nH]c2cccc(Br)c12)c1ccc(Cl)cc1 [Compound 27, N-[(4-bromo-1H-indol-3-yl)methyl]-4-chlorobenzenesulfonamide] | 37.3% of control

System: BxPC3 (pancreatic cancer)
Assay: as above
Format: cell-based
Conditions: Homo sapiens, BXPC-3, 2 h; compound alone, 100 uM, two hour incubation, control DMSO; read-out: POC (percent of control) BxPC3

Row | Compound | activity at 100 µM [%]
16 | O=S(=O)(NCc1c[nH]c2cccc(Br)c12)c1ccc(Cl)cc1 [Compound 27, N-[(4-bromo-1H-indol-3-yl)methyl]-4-chlorobenzenesulfonamide] | 42.8

Same assay, conditions: compound 100 uM + 2DG (about 10-20 mM), two hour incubation

Row | Compound | POC (percent of control) BxPC3
17 | O=S(=O)(NCc1c[nH]c2cccc(Br)c12)c1ccc(Cl)cc1 [Compound 27, N-[(4-bromo-1H-indol-3-yl)methyl]-4-chlorobenzenesulfonamide] | 14.2% of control

Same assay, conditions: compound 100 uM + rotenone (approximately 1.25 μM), two hour incubation

Row | Compound | POC (percent of control) BxPC3
18 | O=S(=O)(NCc1c[nH]c2cccc(Br)c12)c1ccc(Cl)cc1 [Compound 27, N-[(4-bromo-1H-indol-3-yl)methyl]-4-chlorobenzenesulfonamide] | 15.8% of control

System: T47D (breast cancer)
Assay: as above
Format: cell-based
Conditions: Homo sapiens, T47D, 2 h; compound alone, 100 uM, two hour incubation, control DMSO; read-out: POC (percent of control) T47D

Row | Compound | activity at 100 µM [%]
19 | O=S(=O)(NCc1c[nH]c2cccc(Br)c12)c1ccc(Cl)cc1 [Compound 27, N-[(4-bromo-1H-indol-3-yl)methyl]-4-chlorobenzenesulfonamide] | 33.9

Same assay, conditions: compound 100 uM + 2DG (about 10-20 mM), two hour incubation

Row | Compound | POC (percent of control) T47D
20 | O=S(=O)(NCc1c[nH]c2cccc(Br)c12)c1ccc(Cl)cc1 [Compound 27, N-[(4-bromo-1H-indol-3-yl)methyl]-4-chlorobenzenesulfonamide] | 103.1% of control

Same assay, conditions: compound 100 uM + rotenone (approximately 1.25 μM), two hour incubation

Row | Compound | POC (percent of control) T47D
21 | O=S(=O)(NCc1c[nH]c2cccc(Br)c12)c1ccc(Cl)cc1 [Compound 27, N-[(4-bromo-1H-indol-3-yl)methyl]-4-chlorobenzenesulfonamide] | 103.8% of control

System: H293 (kidney cancer)
Assay: as above
Format: cell-based
Conditions: 2 h; compound alone, 100 uM, two hour incubation, control DMSO; read-out: POC (percent of control) H293

Row | Compound | activity at 100 µM [%]
22 | O=S(=O)(NCc1c[nH]c2cccc(Br)c12)c1ccc(Cl)cc1 [Compound 27, N-[(4-bromo-1H-indol-3-yl)methyl]-4-chlorobenzenesulfonamide] | 67

Same assay, conditions: compound 100 uM + 2DG (about 10-20 mM), two hour incubation

Row | Compound | POC (percent of control) H293
23 | O=S(=O)(NCc1c[nH]c2cccc(Br)c12)c1ccc(Cl)cc1 [Compound 27, N-[(4-bromo-1H-indol-3-yl)methyl]-4-chlorobenzenesulfonamide] | 30.4% of control

Same assay, conditions: compound 100 uM + rotenone (approximately 1.25 μM), two hour incubation

Row | Compound | POC (percent of control) H293
24 | O=S(=O)(NCc1c[nH]c2cccc(Br)c12)c1ccc(Cl)cc1 [Compound 27, N-[(4-bromo-1H-indol-3-yl)methyl]-4-chlorobenzenesulfonamide] | 27.3% of control

System: MCF10A (non-cancerous breast)
Assay: as above
Format: cell-based
Conditions: Homo sapiens, MCF-10A, 2 h; compound alone, 100 uM, two hour incubation, control DMSO; read-out: POC (percent of control) MCF10A

Row | Compound | activity at 100 µM [%]
25 | O=S(=O)(NCc1c[nH]c2cccc(Br)c12)c1ccc(Cl)cc1 [Compound 27, N-[(4-bromo-1H-indol-3-yl)methyl]-4-chlorobenzenesulfonamide] | 58.9

Same assay, conditions: compound 100 uM + 2DG (about 10-20 mM), two hour incubation

Row | Compound | POC (percent of control) MCF10A
26 | O=S(=O)(NCc1c[nH]c2cccc(Br)c12)c1ccc(Cl)cc1 [Compound 27, N-[(4-bromo-1H-indol-3-yl)methyl]-4-chlorobenzenesulfonamide] | 27.1% of control

Same assay, conditions: compound 100 uM + rotenone (approximately 1.25 μM), two hour incubation

Row | Compound | POC (percent of control) MCF10A
27 | O=S(=O)(NCc1c[nH]c2cccc(Br)c12)c1ccc(Cl)cc1 [Compound 27, N-[(4-bromo-1H-indol-3-yl)methyl]-4-chlorobenzenesulfonamide] | 30.2% of control

System: HDF (normal cells)
Assay: as above
Format: cell-based
Conditions: 2 h; compound alone, 100 uM, two hour incubation, control DMSO; read-out: POC (percent of control) HDF

Row | Compound | activity at 100 µM [%]
28 | O=S(=O)(NCc1c[nH]c2cccc(Br)c12)c1ccc(Cl)cc1 [Compound 27, N-[(4-bromo-1H-indol-3-yl)methyl]-4-chlorobenzenesulfonamide] | 65

Same assay, conditions: compound 100 uM + 2DG (about 10-20 mM), two hour incubation

Row | Compound | POC (percent of control) HDF
29 | O=S(=O)(NCc1c[nH]c2cccc(Br)c12)c1ccc(Cl)cc1 [Compound 27, N-[(4-bromo-1H-indol-3-yl)methyl]-4-chlorobenzenesulfonamide] | 38% of control

Same assay, conditions: compound 100 uM + rotenone (approximately 1.25 μM), two hour incubation

Row | Compound | POC (percent of control) HDF
30 | O=S(=O)(NCc1c[nH]c2cccc(Br)c12)c1ccc(Cl)cc1 [Compound 27, N-[(4-bromo-1H-indol-3-yl)methyl]-4-chlorobenzenesulfonamide] | 66.6% of control

System: MCF7 (breast cancer)
Assay: as above
Format: cell-based
Conditions: Homo sapiens, MCF7, 2 h; compound alone, 100 uM, two hour incubation, control DMSO; read-out: POC (percent of control) MCF7

Row | Compound | activity at 100 µM [%]
31 | O=S(=O)(NCc1c[nH]c2cccc(Br)c12)c1ccc(Cl)cc1 [Compound 27, N-[(4-bromo-1H-indol-3-yl)methyl]-4-chlorobenzenesulfonamide] | 82.9

Same assay, conditions: compound 100 uM + 2DG (about 10-20 mM), two hour incubation

Row | Compound | POC (percent of control) MCF7
32 | O=S(=O)(NCc1c[nH]c2cccc(Br)c12)c1ccc(Cl)cc1 [Compound 27, N-[(4-bromo-1H-indol-3-yl)methyl]-4-chlorobenzenesulfonamide] | 50.2% of control

Same assay, conditions: compound 100 uM + rotenone (approximately 1.25 μM), two hour incubation

Row | Compound | POC (percent of control) MCF7
33 | O=S(=O)(NCc1c[nH]c2cccc(Br)c12)c1ccc(Cl)cc1 [Compound 27, N-[(4-bromo-1H-indol-3-yl)methyl]-4-chlorobenzenesulfonamide] | 61.1% of control
